Laboratory results reported in publication PMC12765074, “Mechanistic insights into enterocin C targeting the undecaprenyl phosphate recycling protein BacA” (The Journal of Biological Chemistry, 2025).
“And” between values parts separate entries of the source, which are not always exact repeats. Equal entries are not always repeated. Where two headings read alike, the source gives them in different places. Marks after values point to notes of the source that are not given here.

How the values were obtained:
[1] = system: E. faecalis (V583-derivative strain, WT); type: cell-based, Enterococcus faecalis; settings: 6 μl droplets on a lawn of E. faecalis, BHI 0.75% agar, overnight; representative of three independent experiments
E. faecalis cells = assay: growth prevention in liquid culture; type: cell-based, Enterococcus faecalis
[2] = system: EfΔbacA cells (pIL252 empty vector); assay: spot assay on bacA-deleted strain; type: cell-based, Enterococcus faecalis; settings: spot on BHI agar
[3] = system: EfΔbacA cells carrying pIL:bacAef; assay: spot assay on bacA-complemented strain; type: cell-based, Enterococcus faecalis; settings: spot on BHI agar
[4] = system: E. faecalis EfΔbacA cells expressing catalytically inactive variants of BacAef (E20A, S26A, R172A); assay: spot-on-lawn assay, catalytic site mutants; type: cell-based, Enterococcus faecalis
[5] = system: E. faecalis EfΔbacA cells expressing BacAef variants (K209A variants); assay: spot-on-lawn assay, D106/D110/K209 variants; type: cell-based, Enterococcus faecalis; settings: compared to wild-type BacAef
L. lactis IL1403 = assay: spot-on-lawn antibacterial assay, L. lactis; type: cell-based, Lactococcus lactis; settings: 6 μl droplets, L. lactis IL1403, M17G agar, overnight
BacAef [6] = molecular target: T1, BacAef (Enterococcus faecalis, UniProt A0ACD6TE02); type: biochemical; settings: DDM micelles; 20 mM Tris-HCl pH 7.4, 400 μM CaCl2, 150 mM NaCl, 0.1% DDM, 50 μM [14C]C55-PP, 10 min, 37 °C, TLC; EntC vs EntC1 p-value = 0.0007; read-out: IC50, BacAef C55-PP phosphatase activity
BacAef [7] = molecular target: T1, BacAef; assay: UppS-coupled C55-PP phosphatase assay in liposomes, BacAef; type: biochemical; settings: DOPC:DOPG:DOPE liposomes, 20 mM HEPES pH 7.5, 37 °C, 10 min, TLC
Description: (§2) The reconstitution of BacA and PgpB in liposomes was achieved through adapted protocols previously described ([48]). Liposomes were prepared by rehydrating a lipid film of DOPC: DOPG: DOPE (3 mg: 0.75 mg: 1.25 mg) after 4 h of desiccation by adding 1 ml of buffer (20 mM HEPES, pH 7.5, 50 mM NaCl, 15% glycerol). […] The lipid suspension underwent 10 freeze-thaw cycles in liquid nitrogen and was extruded through a 100 nm polycarbonate membrane (Millipore). Protein reconstitution was performed by destabilizing the liposomes with 5.5 mM Triton X-100 for 15 min. The protein was added at a final concentration of 15 μg/ml and the mixture was incubated at 4 °C for 15 min.
(§3) The liposomes were used to measure the C55-PP phosphatase activity of BacA in a membrane environment as follows. For each kinetic assay, 5 μl of a reaction mixture containing 20 μM C15-PP, 20 μM [^14C]C5-PP, 180 μM C5-PP in 20 mM HEPES, pH 7.5, 50 mM NaCl, and 15% glycerol were mixed with 5 μl of protein-free liposomes (as a control) or BacA-containing liposomes. The mixture was then supplemented with UppS at a final concentration of 0.2 mg/ml to initiate the enzymatic synthesis of C55-PP. The EntC peptides were added at various concentrations from a water solution. […] Substrates and products were separated and quantified by thin-layer chromatography as previously described for C55-PP phosphatase assay in detergent.

[8] = liposome permeabilisation assay (BCECF), protein-free; type: biochemical; settings: 5 μM EntC, internal pH 8, external pH 6
PgpB-liposomes = assay: proteoliposome permeabilisation assay (BCECF), PgpB-liposomes; type: biochemical, Escherichia coli; settings: EntC
BacAef [9] = molecular target: T1, BacAef; assay: ITC, BacAef; type: binding; settings: ITC, 20 °C
Description: ITC experiments were performed with an ITC200 isothermal titration calorimeter from MicroCal (Malvern Panalytical, Malvern, UK). The experiments were carried out at 20 °C. The protein concentration in the microcalorimeter cell (0.2 ml) was 33 μM. Nineteen 2-μl injections of peptides at 400 μM were performed at intervals of 240 s while stirring at 500 rpm. To limit buffer mismatching effect between the cell and the syringe, and the heat-of-dilution effect for having glycerol in the protein solution, the latter were extensively dialyzed, prior to the ITC measurement, in a buffer containing 20 mM Tris-HCl pH 7.4, 200 mM NaCl, 0.1% DDM, to remove glycerol. Then, the dialysis buffer was used to dilute the EntC peptides to further limit buffer mismatching. The experimental data were fitted to theoretical titration curves with the software supplied by MicroCal (ORIGIN). This software uses the relationship between the heat generated by each injection and ΔH (enthalpy change in kcal/mol), Ka (the association binding constant in M^−1), n (the number of binding sites), total protein concentration and free and total ligand concentrations.

BacAef E20A = BacAef E20A (Enterococcus faecalis, UniProt A0ACD6TE02, E32A); assay: ITC, BacAef E20A; type: binding; settings: 20 °C
Description: (§1) The experiments were carried out at 20 °C.

BacAef S26A = BacAef S26A (Enterococcus faecalis, UniProt A0ACD6TE02, S38A); assay: ITC, BacAef S26A; type: binding; settings: 20 °C
Description: as §1

BacAef K209A D110A D106A = assay: ITC, BacAef K209A D110A D106A; type: binding, Enterococcus faecalis; settings: 20 °C, 400 μM into [BacAef K209A D110A D106A] 33 μM, pH 7.4, 0.1% DDM, at least triplicate
Description: as §1

[10] = system: E. faecalis EfΔbacA cells expressing BacAef; assay: survival test; type: cell-based, Enterococcus faecalis; settings: 0.5 μM EntC, 30 min
[11] = system: E. faecalis EfΔbacA cells expressing BacAef S26A; assay: survival test; type: cell-based, Enterococcus faecalis; settings: 0.5 μM EntC, 30 min, 37 °C, p ≤ 0.01, three experiments
[12] = system: E. faecalis EfΔbacA cells expressing BacAef R172A; assay: survival test; type: cell-based, Enterococcus faecalis; settings: 0.5 μM EntC, 30 min, 37 °C, p ≤ 0.0001, three experiments
[13] = system: E. faecalis EfΔbacA cells expressing BacAef D106A; assay: survival test; type: cell-based, Enterococcus faecalis; settings: 0.5 μM EntC, 30 min, 37 °C, three experiments
[14] = system: E. faecalis EfΔbacA cells expressing BacAef K209A; assay: survival test; type: cell-based, Enterococcus faecalis; settings: 0.5 μM EntC, 30 min, 37 °C, p ≤ 0.0001, three experiments
[15] = system: E. faecalis EfΔbacA cells expressing BacAef K209A D106A; assay: survival test; type: cell-based, Enterococcus faecalis; settings: 0.5 μM EntC, 30 min, 37 °C, p ≤ 0.01, three experiments
[16] = system: E. faecalis EfΔbacA cells expressing BacAef K209A D110A; assay: survival test; type: cell-based, Enterococcus faecalis; settings: 0.5 μM EntC, 30 min, 37 °C, p ≤ 0.001, three experiments
[17] = system: E. faecalis EfΔbacA cells expressing BacAef D106A D110A; assay: survival test; type: cell-based, Enterococcus faecalis; settings: 0.5 μM EntC, 30 min, 37 °C, three experiments
[18] = system: E. faecalis EfΔbacA cells expressing BacAef K209A D106A D110A; assay: survival test; type: cell-based, Enterococcus faecalis; settings: 0.5 μM EntC, 30 min, 37 °C, p ≤ 0.0001, three experiments
BacAec = BacAec (Escherichia coli, UniProt P60932); settings: highest concentration tested 100 μM
Sequence of BacAec (P60932 whole entry): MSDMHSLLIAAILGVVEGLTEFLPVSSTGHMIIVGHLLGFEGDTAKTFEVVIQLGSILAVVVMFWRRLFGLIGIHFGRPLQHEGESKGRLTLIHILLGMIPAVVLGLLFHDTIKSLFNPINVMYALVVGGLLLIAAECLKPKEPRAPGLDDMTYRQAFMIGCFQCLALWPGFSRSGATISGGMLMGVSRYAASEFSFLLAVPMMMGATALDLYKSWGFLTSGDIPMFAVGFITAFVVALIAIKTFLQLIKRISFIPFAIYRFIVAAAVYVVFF
Description: as §2, §3

BacAef-liposomes = settings: 5 μM EntC, internal pH 8, external pH 6, peptide:lipid c.a. 1:1300, without EntC 1.10^-4 sec^-1
E. faecalis = settings: ref [17]; cited from earlier work

Substance: Enterocin C [EntC]
- antibacterial activity (spot-on-lawn), E. faecalis [1]: E. faecalis was only susceptible to EntC
- concentration required to prevent the growth of E. faecalis cells (E. faecalis cells; BHI): 100 nM
- concentration required to prevent the growth of E. faecalis cells (E. faecalis cells; M17): 50 nM
- concentration required to prevent the growth of E. faecalis cells (E. faecalis cells; MRS): 2 nM
- susceptibility of EfΔbacA strain [2]: full resistance
- susceptibility of EfΔbacA strain with ectopic bacA [3]: fully restored
- susceptibility of EfΔbacA expressing catalytic site mutant alleles [4]: restored with a plasmid expressing wild-type bacAef or any of the three catalytic site mutant alleles, although a slight decrease of the susceptibility was observed with R172A variant
- susceptibility of EfΔbacA expressing K209A variants [5]: small reduction in susceptibility
- antibacterial activity (spot-on-lawn), L. lactis (L. lactis IL1403): sensitivity to both bacteriocins
- IC50 (BacAef [6]): 400 ± 100 nM
- IC50 (BacAef [7]): 1200 ± 100 nM
- membrane permeabilization of protein-free liposomes [8]: did not affect protein-free liposomes
- membrane permeabilization of PgpB-liposomes (PgpB-liposomes): no permeabilization effect
- -TΔS (BacAef [9]; into [BacAef] 33 μM): 14.1 kcal/mol
- ΔG (BacAef [9]; into [BacAef] 33 μM): -9.0 kcal/mol
- ΔH (BacAef [9]; into [BacAef] 33 μM): -23.1 kcal/mol
- Kd (BacAef [9]; peptides 400 μM into [BacAef] 33 μM, 20 mM Tris-HCl pH 7.4, 200 mM NaCl, 0.1% DDM, at least triplicate): 196 ± 47 nM
- n (BacAef [9]; peptides 400 μM into [BacAef] 33 μM, pH 7.4, 0.1% DDM, at least triplicate): 0.90 ± 0.01
- n (BacAef E20A; 400 μM into [BacAef E20A] 33 μM): 0.69 ± 0.01
- Kd (BacAef E20A; 400 μM into [BacAef E20A] 33 μM, pH 7.4, 0.1% DDM, at least triplicate): 190 ± 40 nM
- -TΔS (BacAef E20A; into [BacAef E20A]): 13.0 kcal/mol
- ΔG (BacAef E20A; into [BacAef E20A]): -9 kcal/mol
- ΔH (BacAef E20A; into [BacAef E20A]): -22.0 kcal/mol
- n (BacAef S26A; 400 μM into [BacAef S26A] 33 μM): 0.80 ± 0.02
- Kd (BacAef S26A; 400 μM into [BacAef S26A] 33 μM, pH 7.4, 0.1% DDM, at least triplicate): 439 ± 125 nM
- -TΔS (BacAef S26A; into [BacAef S26A]): 8.5 kcal/mol
- ΔG (BacAef S26A; into [BacAef S26A]): -8.5 kcal/mol
- ΔH (BacAef S26A; into [BacAef S26A]): -17.0 kcal/mol
- KD (BacAef K209A D110A D106A): No binding
- % of survival ([10]; 37 °C, BHI, CFU vs same cells without EntC, three independent experiments): <1%
- cells killed ([10]; exponentially growing cells expressing wild-type BacAef): more than 99%
- % of survival [11]: 6.8% and 6.8 ± 2.4 ^c %
- % of survival [12]: 7.8% and 7.8 ± 0.8 ^d %
- % of survival [13]: 1.6 ± 1.0%
- % of survival [14]: 11% and 11 ± 1.0 ^d %
- % of survival [15]: 14 ± 4.0 ^c %
- % of survival [16]: 7.6 ± 1.0 ^e %
- % of survival [17]: 4.0 ± 3.0%
- % of survival [18]: 54% and 54 ± 11 ^d %
- inhibition of BacAec in liposomes (BacAec): no inhibitory effect
- rate of decrease of BCECF fluorescence (BacAef-liposomes): about 6.10^-4 sec^-1
- activity against E. faecalis (E. faecalis): active against the opportunistic pathogen E. faecalis
